{
  "source": "PubChem BioAssay AID2060607",
  "about": "(Molecular Pharmacology Branch, DTP, NCI, 2025)",
  "tested_on": "876862-298-R-J1-PDC complex spheroids, viability % test/control",
  "assay": "Anticancer human tumor 876862-298-R-J1-PDC patient-derived endometrial carcinoma cell line growth inhibition [CLK]",
  "conditions": "for pIC50: curve of first compound; for viability, T/C: stronger effect = lower value",
  "procedure,_shortened": "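Multi-cell-type spheroids combined patient-derived tumor cells with HUVEC endothelial cells and human mesenchymal stem cells. Paired agents were dosed in half-log steps down from about clinical Cmax, or from 10 microM where Cmax was unknown.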",
  "note": "pIC50: −log10 of the molar value.",
  "data": [
    {"molecule": "O=C(c1cc(Cc2n[nH]c(=O)c3ccccc23)ccc1F)N1CCN(C(=O)C2CC2)CC1", "note": "+ CNC(=O)c1ccc(Nc2nc(OC3CCCC3)c3c(-c4ccc5nc(C)oc5c4)c[nH]c3n2)c(OC)c1;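 further: spheroids exposed to drugs for 7 days before readout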;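 on viability, T/C: 100% = DMSO vehicle control wells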", "values": [
      {"measurement": "pIC50", "setting": "second compound 0.0316 µM", "value": "< 5.00"},
      {"measurement": "pIC50", "setting": "second compound 0.1 µM", "value": 5.68},
      {"measurement": "pIC50", "setting": "second compound 0.316 µM", "value": "> 7.50"},
      {"measurement": "pIC50", "setting": "second compound 1 µM", "value": "> 7.50"},
      {"measurement": "pIC50", "setting": "second compound 3.16 µM", "value": "> 7.50"},
      {"measurement": "pIC50", "setting": "second compound 10 µM", "value": "> 7.50"},
      {"measurement": "viability, T/C", "setting": "second compound 0.0316 µM, first compound 0.0316 µM", "value": 70.5, "unit": "%"},
      {"measurement": "viability, T/C", "setting": "second compound 0.0316 µM, first compound 0.1 µM", "value": 97, "unit": "%"},
      {"measurement": "viability, T/C", "setting": "second compound 0.0316 µM, first compound 0.316 µM", "value": 84.5, "unit": "%"},
      {"measurement": "viability, T/C", "setting": "second compound 0.0316 µM, first compound 1 µM", "value": 94.7, "unit": "%"},
      {"measurement": "viability, T/C", "setting": "second compound 0.0316 µM, first compound 3.16 µM", "value": 96.8, "unit": "%"},
      {"measurement": "viability, T/C", "setting": "second compound 0.0316 µM, first compound 10 µM", "value": 72.6, "unit": "%"},
      {"measurement": "viability, T/C", "setting": "second compound 0.1 µM, first compound 0.0316 µM", "value": 47.4, "unit": "%"},
      {"measurement": "viability, T/C", "setting": "second compound 0.1 µM, first compound 0.1 µM", "value": 55, "unit": "%"},
      {"measurement": "viability, T/C", "setting": "second compound 0.1 µM, first compound 0.316 µM", "value": 50.6, "unit": "%"},
      {"measurement": "viability, T/C", "setting": "second compound 0.1 µM, first compound 1 µM", "value": 50.6, "unit": "%"},
      {"measurement": "viability, T/C", "setting": "second compound 0.1 µM, first compound 3.16 µM", "value": 51.5, "unit": "%"},
      {"measurement": "viability, T/C", "setting": "second compound 0.1 µM, first compound 10 µM", "value": 47.3, "unit": "%"},
      {"measurement": "viability, T/C", "setting": "second compound 0.316 µM, first compound 0.0316 µM", "value": 49.1, "unit": "%"},
      {"measurement": "viability, T/C", "setting": "second compound 0.316 µM, first compound 0.1 µM", "value": 44.6, "unit": "%"},
      {"measurement": "viability, T/C", "setting": "second compound 0.316 µM, first compound 0.316 µM", "value": 40.6, "unit": "%"},
      {"measurement": "viability, T/C", "setting": "second compound 0.316 µM, first compound 1 µM", "value": 40.6, "unit": "%"},
      {"measurement": "viability, T/C", "setting": "second compound 0.316 µM, first compound 3.16 µM", "value": 39.4, "unit": "%"},
      {"measurement": "viability, T/C", "setting": "second compound 0.316 µM, first compound 10 µM", "value": 35.9, "unit": "%"},
      {"measurement": "viability, T/C", "setting": "second compound 1 µM, first compound 0.0316 µM", "value": 39.1, "unit": "%"},
      {"measurement": "viability, T/C", "setting": "second compound 1 µM, first compound 0.1 µM", "value": 33.7, "unit": "%"},
      {"measurement": "viability, T/C", "setting": "second compound 1 µM, first compound 0.316 µM", "value": 29.6, "unit": "%"},
      {"measurement": "viability, T/C", "setting": "second compound 1 µM, first compound 1 µM", "value": 34.1, "unit": "%"},
      {"measurement": "viability, T/C", "setting": "second compound 1 µM, first compound 3.16 µM", "value": 31.3, "unit": "%"},
      {"measurement": "viability, T/C", "setting": "second compound 1 µM, first compound 10 µM", "value": 26.1, "unit": "%"},
      {"measurement": "viability, T/C", "setting": "second compound 3.16 µM, first compound 0.0316 µM", "value": 25.5, "unit": "%"},
      {"measurement": "viability, T/C", "setting": "second compound 3.16 µM, first compound 0.1 µM", "value": 23.7, "unit": "%"},
      {"measurement": "viability, T/C", "setting": "second compound 3.16 µM, first compound 0.316 µM", "value": 20.4, "unit": "%"},
      {"measurement": "viability, T/C", "setting": "second compound 3.16 µM, first compound 1 µM", "value": 25.3, "unit": "%"},
      {"measurement": "viability, T/C", "setting": "second compound 3.16 µM, first compound 3.16 µM", "value": 23.3, "unit": "%"},
      {"measurement": "viability, T/C", "setting": "second compound 3.16 µM, first compound 10 µM", "value": 14.3, "unit": "%"},
      {"measurement": "viability, T/C", "setting": "second compound 10 µM, first compound 0.0316 µM", "value": 22, "unit": "%"},
      {"measurement": "viability, T/C", "setting": "second compound 10 µM, first compound 0.1 µM", "value": 21.5, "unit": "%"},
      {"measurement": "viability, T/C", "setting": "second compound 10 µM, first compound 0.316 µM", "value": 20.8, "unit": "%"},
      {"measurement": "viability, T/C", "setting": "second compound 10 µM, first compound 1 µM", "value": 19.4, "unit": "%"},
      {"measurement": "viability, T/C", "setting": "second compound 10 µM, first compound 3.16 µM", "value": 23.5, "unit": "%"},
      {"measurement": "viability, T/C", "setting": "second compound 10 µM, first compound 10 µM", "value": 14.6, "unit": "%"}
    ]}
  ]
}
